Laboratory results from patent US20240042424A1, “CITY POLLUTION ENVIRONMENT SIMULATION APPARATUS” (BASF SE, priority 2017, published 2024).

Assays:
Type in all cases: physicochemical
[1] = Sebum oxidation products by GC/MS after exposure in pollution test chamber (dry film method); details: for change of sebum component in GC/MS chromatogram: upon UVA exposure
Procedure: (§1) A) Stock solutions and preparation: • Stock solution squalene: 1 g of squalene was dissolved in 100 ml ethanol solvent • Stock solution sebum: 1 g of synthetic sebum (e.g. Synthetic Sebum 09D, available from WFK Testgewebe GmbH) was dissolved in 100 ml ethanol solvent using a water bath 15 minutes under 40° C. heat 1 ml of the respective stock solution was added at the center of large petri dishes (100 mm diameter×17 mm height) using an automatic pipette. After evaporating the ethanol solvent in a high ventilated fume hood for 10 mins, the petri dishes were coated with one uniform layer of squalene, respectively sebum, evenly distributed at the bottom of the petri dish. In total 16 samples were prepared, 8 of each respective batch, meaning 8 with squalene coating (batch 1) and 8 with sebum coating (batch 2). The side walls of the test petri dish samples were wrapped with plastic band seals in order to get them vertically hooked in a position facing the UVA lamps located on sides in the pollution test chamber. Four coated petri dishes, two with squalene and two with sebum, were stored in a fridge at 4° C. for control purposes, due to the autoxidation of squalene.
(§2) For each batch, 2 samples (in total 4 samples per mode) were respectively exposed to the 3 different pollution modes (i to iii): • i. During the “UVA only” (“uv”) mode, the samples were exposed to continuous 340 nm UV irradiation of the 8 UVA lamps for 6 hours. • ii. […]
(§3) 3.3.1 Squalene and Sebum oxidation products quantification with GC/MS • Equipment: Agilent 7890B/5977A GC-MS system • Dissolution solvent: Ethanol • column: DB-1MS • Flow Rate: 2 ml/min • Column Temperature: 40° C. […] Malondialdehyde (MDA) Quantification with Spectrophotometer (MDA-TBA Detection) • UV-vis scan between 200 and 800 nm, • Colorimetry: UV detection for MDA-TBA complex at 532 nm • Standard curve preparation: As precursor of MDA, 1,1,3,3-tetraethoxypropane (TEP) was used. […]

[2] = Squalene oxidation products by GC/MS after exposure in pollution test chamber (dry film method); details: solvent ethanol
Procedure: as §1, §2, §3

[3] = MDA quantification/TBA test for squalene samples after pollution exposure
Procedure: as §1, §2, §3

Compound | change of sebum component in GC/MS chromatogram [1] | squalene oxidization products (GC/MS) ([2]; UVA and exhaust gas (PUV-Mode), UVA 6 h, 3x30 mins diesel engine exhaust gas) | squalene oxidization products (GC/MS) ([2]; UVA irradiation only (UV-Mode), UVA for 6 h) | squalene oxidization products (GC/MS) ([2]; exhaust gas only (p-Mode), 3x30 mins diesel engine exhaust gas) | decrease of squalene from sebum (GC/MS) ([1]; 2 h UVA exposure and one-time 30 min exhaust gas, solvent Ethanol) [%] | MDA percentage of initial mole of squalene ([3]; UVA irradiation only (uv mode)) [%] | MDA percentage of initial mole of squalene ([3]; combined exhaust gas and UV irradiation (puv mode)) [%] | MDA percentage of initial mole of squalene ([3]; exhaust gas only (p mode)) [%]
CCCCCCCCCCCCCCCC(=O)O [palmitic acid] | increase | – | – | – | – | – | – | –
CC(C)CCC[C@@H](C)[C@H]1CC[C@H]2[C@@H]3CC=C4C[C@@H](O)CC[C@]4(C)[C@H]3CC[C@]12C [cholesterol] | increase | – | – | – | – | – | – | –
CC(C)=CCC/C(C)=C/CC/C(C)=C/CC/C=C(\C)CC/C=C(\C)CCC=C(C)C [squalene] | – | a mix of pollution-induced squalene isomers (SQ isomers) as well as irradiation-induced oxidation products (SQOPs) | highest content of oxidation products | squalene isomers (SQ isomers) | 93 | 14.0 | 13.6 | 13.5
